Data reported in patent US6051406A, “Keratan sulfate 6-sulfotransferase and DNA coding for the same” (Seikagaku Kogyo Kabushiki Kaish, priority 1996, dated 2000).

Experiments:
[1] = target: T1, partially purified KSST (KSGal6ST) (Homo sapiens, UniProt O43916); test: Effect of added salts and dithiothreitol on KSST activity (Reaction Mixture II); format: biochemical; design: made in house; host or cells: COS-7 cells transfected with pCXNKSST (pCXN2 vector); extract partially purified over DEAE-Sephadex A-50 (non-adsorbed fraction) and Heparin-Sepharose CL-6B; settings: for Sulfotransferase activity with added salt: salt at final concentration of 5 mM instead of CaCl2, keratan sulfate receptor, Reaction Mixture II
T1 sequence (O43916 1-411): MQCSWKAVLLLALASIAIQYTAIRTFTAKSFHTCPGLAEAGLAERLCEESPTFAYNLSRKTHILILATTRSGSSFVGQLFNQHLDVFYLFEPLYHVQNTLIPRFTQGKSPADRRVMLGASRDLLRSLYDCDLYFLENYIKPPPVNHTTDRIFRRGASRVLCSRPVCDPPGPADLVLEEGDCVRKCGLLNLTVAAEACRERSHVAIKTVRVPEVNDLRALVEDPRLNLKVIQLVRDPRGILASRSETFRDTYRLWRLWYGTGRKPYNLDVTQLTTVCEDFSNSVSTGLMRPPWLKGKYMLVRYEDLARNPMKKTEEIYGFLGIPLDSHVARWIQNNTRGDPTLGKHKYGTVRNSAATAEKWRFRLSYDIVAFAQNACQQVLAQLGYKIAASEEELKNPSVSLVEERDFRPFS
Experimental: (§5) Characterization of the KSST partially purified as described above was performed.

[2] = target: T1, partially purified KSST (KSGal6ST); settings: read-out: Km value for PAPS (sulfate group donor)
Experimental: as §5

[3] = test system: crude extract of COS-7 cells with pCXNKSST introduced; test: Sulfotransferase activity for various glycosaminoglycan receptors, crude extract (Reaction Mixture II); format: biochemical; settings: 25 nmol glycosaminoglycan as receptor
Experimental: (§1) Activity for various kinds of glycosaminoglycans as the substrate was assayed by using 25 nmol (as galactosamine for chondroitin sulfate (A and C) and dermatan sulfate, and as glucosamine for keratan sulfate and CDSNS-heparin (completely desulfated, N-sulfated heparin, available from Seikagaku Corp.)) of glycosaminoglycan instead of keratan sulfate.
(§2) In the above both cases, the reaction mixtures were incubated at 37° C. for 20 minutes, and the reaction was stopped by immersing reaction tubes into boiling water for one minute.
(§3) After stopping the reaction, 0.1 μmol (as glucuronic acid) of chondroitin sulfate A was added as a carrier, and 3 volumes of ethanol containing 1.3% potassium acetate was added to the reaction mixture to precipitate ^35 S-labeled polysaccharide. The reaction mixture was centrifuged at 10,000×g for 10 minutes, and the resulting precipitates were dissolved in 70 μl of water. The resulting solution (50 μl) was loaded on a desalting column equilibrated with 0.1 M NH4 HCO3, and the eluted fractions containing the ^35 S-labeled polysaccharide were collected. Scintillation cocktail (1 ml, Clearsol, Nakarai Tesque) was added to 200 μl of each of the obtained fractions, and incorporation of ^35 S into the polysaccharide was determined by assaying ^35 S-radioactivity. Activity catalyzing transfer of 1 pmol sulfate group/minute was defined as 1 unit.
(§4) The adsorbed fraction was eluted with Buffer A containing 0.5 M NaCl, and the eluate was dialyzed against Buffer A containing 50 mM NaCl. The dialysate was used as KSST not containing CST. […] For the activity assay, 25 nmol (as galactosamine for chondroitin, chondroitin sulfate A, chondroitin sulfate C and dermatan sulfate, and as glucosamine for keratan sulfate and CDSNS-heparin) of glycosaminoglycan was used instead of the keratan sulfate contained in the standard reaction mixture.

[4] = target: T1, partially purified KSST (KSGal6ST); test: Sulfotransferase activity for various glycosaminoglycan receptors, partially purified KSST (Reaction Mixture II); format: biochemical; design: made in house; host or cells: COS-7 cells transfected with pCXNKSST (pCXN2 vector); extract partially purified over DEAE-Sephadex A-50 (non-adsorbed fraction) and Heparin-Sepharose CL-6B; settings: for Sulfotransferase activity, Partially purified product: 25 nmol glycosaminoglycan as receptor, Reaction Mixture II, after Heparin-Sepharose CL-6B; for sulfotransferase activity for this receptor relative to keratan sulfate sulfotransferase activity after the purification: partially purified product
Experimental: as §1, §2, §3
Homogenate of COS-7 cells with pCXNKSST introduced from 80 dishes (224 mg as protein) was applied to a DEAE-Sephadex A-50 column (Pharmacia, 2.2×13 cm) equilibrated with Buffer A. The column was washed with 500 ml of Buffer A , and then the adsorbed fraction was eluted with Buffer A containing 0.5 M NaCl.
as §4

[5] = test system: sulfotransferase activity; test: Sulfotransferase activity of pCXNKSST-transfected COS-7 cells with other sulfate group receptors; format: cell-based; settings: COS-7 cells with KSST cDNA in the correct direction, substance used as sulfate group receptor
Source text: This cDNA was introduced into a plasmid (pCXN2) (a recombinant plasmid where the direction of the promoter is conformed with that of the cDNA was designated as pCXNKSST, and recombinant plasmid where the cDNA was inserted in a reversed direction was designated as pCXNKSST2), and COS-7 cells were transfected with the obtained plasmids by the method described above. […] When dermatan sulfate, heparan sulfate, or completely desulfated, N-sulfated heparin (CDSNS-heparin) was used as the sulfate group receptor, no increase of sulfotransferase activity was observed.

[6] = substrate: Nc1ncnc2c1ncn2[C@@H]1O[C@H](COP(=O)(O)OS(=O)(=O)O)[C@@H](OP(=O)(O)O)[C@H]1O; test: purified protein, by the assay type

`O[C@H](CS)[C@H](O)CS` (racemic) [Dithiothreitol] was tested, and the “effect on KSST activity” value ([1]; concentration up to 10 mM) was “did not affect the KSST activity”.

For `[Ba+2].[Cl-].[Cl-]` [BaCl2], the “Sulfotransferase activity with added salt” value [1] was 21.0 pmol/minute/mg protein.

With `[Ca+2].[Cl-].[Cl-]` [CaCl2] the “optimum concentration for KSST activity” value [1] was “about 10 mM”, the “Sulfotransferase activity with added salt” value [1] was 26.2 pmol/minute/mg protein and the “effect on KSST activity” value ([1]; salts at 5 mM) was “most strongly enhanced the KSST activity”.

With `[Cl-].[Cl-].[Co+2]` [CoCl2] the “Sulfotransferase activity with added salt” value [1] was 24.6 pmol/minute/mg protein.

In the case of `[Cl][Cu][Cl]` [CuCl2], the “Sulfotransferase activity with added salt” value [1] is reported as 10.0 pmol/minute/mg protein.

For `O=S(=O)([O-])[O-].[Fe+2]` [FeSO4], the “Sulfotransferase activity with added salt” value [1] was 3.0 pmol/minute/mg protein.

In the case of `[Cl-].[Cl-].[Mg+2]` [MgCl2], the “Sulfotransferase activity with added salt” value [1] is reported as 18.8 pmol/minute/mg protein.

In the case of `[Cl][Mn][Cl]` [MnCl2], the “Sulfotransferase activity with added salt” value [1] is reported as 28.0 pmol/minute/mg protein and the “effect on KSST activity” value ([1]; salts at 5 mM) is reported as “most strongly enhanced the KSST activity”.

`[Cl][Ni][Cl]` [NiCl2] was tested, and the “Sulfotransferase activity with added salt” value [1] was 10.0 pmol/minute/mg protein.

`Nc1ncnc2c1ncn2[C@@H]1O[C@H](COP(=O)(O)OS(=O)(=O)O)[C@@H](OP(=O)(O)O)[C@H]1O` [PAPS, 3'-phosphoadenosine 5'-phosphosulfate] was tested, and the Km [2] was ~0.2 µM.

With `[Cl-].[Cl-].[Sr+2]` [SrCl2] the “Sulfotransferase activity with added salt” value [1] was 21.6 pmol/minute/mg protein.

`[Cl-].[Cl-].[Zn+2]` [ZnCl2] was tested, and the “Sulfotransferase activity with added salt” value [1] was 1.5 pmol/minute/mg protein.

In the case of Chondroitin, the “Sulfotransferase activity, Crude extract” value [3] is reported as 0.016 pmol/minute/mg protein × 10^-2, the “Sulfotransferase activity, Partially purified product” value [4] is reported as 0.03 pmol/minute/mg protein × 10^-2 and the “sulfotransferase activity for this receptor relative to keratan sulfate sulfotransferase activity after the purification” value [4] is reported as ≤ 2%.

For Chondroitin sulfate A, the “Sulfotransferase activity, Crude extract” value [3] was 0.009 pmol/minute/mg protein × 10^-2 and the “Sulfotransferase activity, Partially purified product” value [4] was 0.03 pmol/minute/mg protein × 10^-2.

Chondroitin sulfate C was tested, and the “Sulfotransferase activity, Crude extract” value [3] was 0.005 pmol/minute/mg protein × 10^-2 and the “Sulfotransferase activity, Partially purified product” value [4] was 0.02 pmol/minute/mg protein × 10^-2.

With Dermatan sulfate the “Sulfotransferase activity, Crude extract” value [3] was 0.005 pmol/minute/mg protein × 10^-2, the “Sulfotransferase activity, Partially purified product” value [4] was 0.02 pmol/minute/mg protein × 10^-2 and the “increase of sulfotransferase activity with this sulfate group receptor” value (shortened to “increase of sulfotransferase activity”) [5] was “no increase”.

For Keratan sulfate, the “Sulfotransferase activity, Crude extract” value [3] was 0.168 pmol/minute/mg protein × 10^-2 and the “Sulfotransferase activity, Partially purified product” value [4] was 2.51 pmol/minute/mg protein × 10^-2.

In the case of Protamine Chloride, the “Sulfotransferase activity with added salt” value [1] is reported as 8.8 pmol/minute/mg protein.

With “completely desulfated, N-sulfated heparin [CDSNS-heparin]” the “Sulfotransferase activity, Crude extract” value [3] was 0.109 pmol/minute/mg protein × 10^-2, the “Sulfotransferase activity, Partially purified product” value [4] was 0.05 pmol/minute/mg protein × 10^-2 and the “sulfotransferase activity for this receptor relative to keratan sulfate sulfotransferase activity after the purification” value [4] was ≤ 2%. The “increase of sulfotransferase activity” value [5] was “no increase”.

In the case of heparan sulfate, the “increase of sulfotransferase activity” value [5] is reported as “no increase”.

B1: partially purified KSST (KSGal6ST) (Homo sapiens) (protein)
chain: MQCSWKAVLLLALASIAIQYTAIRTFTAKSFHTCPGLAEAGLAERLCEESPTFAYNLSRKTHILILATTRSGSSFVGQLFNQHLDVFYLFEPLYHVQNTLIPRFTQGKSPADRRVMLGASRDLLRSLYDCDLYFLENYIKPPPVNHTTDRIFRRGASRVLCSRPVCDPPGPADLVLEEGDCVRKCGLLNLTVAAEACRERSHVAIKTVRVPEVNDLRALVEDPRLNLKVIQLVRDPRGILASRSETFRDTYRLWRLWYGTGRKPYNLDVTQLTTVCEDFSNSVSTGLMRPPWLKGKYMLVRYEDLARNPMKKTEEIYGFLGIPLDSHVARWIQNNTRGDPTLGKHKYGTVRNSAATAEKWRFRLSYDIVAFAQNACQQVLAQLGYKIAASEEELKNPSVSLVEERDFRPFS
B1 gave a Km [6] of 0.2 µM.
